# According to patent US11414677B2, “Methods and compositions for performing continuous directed evolution” (Massachusetts Institute of Technology, priority 2017, dated 2022):
# How the values were obtained:
# tTAwt.mCherry adenovirus [1] = assay type: cell-based, Adenovirus type 5
# Experimental: FIGS. 21A-21C. FIG. 21A. […] HEK293A cells stably encoding the gene for adenoviral protease (AdProt) under control of the endogenous tTA operator are infected by an initial ratio of 1:100 or 1:1,000 tTAwt.mCherry to tTAmut.GFP viruses. Viral media was serially passaged onto a new plate of cells for three rounds. The viral populations were then determined via flow cytometry. FIG. 21B. Quantification of flow cytometry data from the competition experiment. […] The initial ratio of the 1:1,000 sample (labeled N.D.; not detectable) was not experimentally quantifiable owing to the low amount of tTAwt.mCherry adenovirus present, and was therefore derived by dilution of the 1:100 initial ratio. For raw flow cytometry data, see FIG. 26 and FIG. 27. FIG. 21C. […]
# Adenoviral titers were determined through flow cytometry. […] 2-3 days post-infection, cells were washed once with media, stained with 0.2 μg/mL DAPI, and then analyzed on a BD LSR II Analyzer for fluorescent protein expression. Infectious titers were determined by measuring the percentage of cells infected by a known volume of virus. To minimize counting cells that were infected by more than one virus and to minimize any background fluorescence, data were only considered if they fell within the linear range, which typically encompassed samples where 1-10% of cells were infected. […]
# tTAwt.mCherry adenovirus [2] = experiment: Doxycycline dose response of tTAwt.mCherry adenovirus titer in TRE3G.AdProt cells; assay type: cell-based, Adenovirus type 5; conditions: synchronous infection, various dox concentrations
# Experimental: FIG. 36. Dose response of tTA-mCherry titer when treated with doxycycline. […] Titer is given in “infectious units per mL” (IU/mL), which is defined as the number of viruses per mL that are able to elicit a fluorescent signal in cells when analyzed by flow cytometry.
# A semi-confluent dish of TRE3G.AdProt cells (˜160,000 cells) (TABLE 13) was infected with tTAwt. mCherry adenovirus (multiplicity of infection ˜2.5) (TABLE 12). After 3 h, the cells were washed twice, and fresh tet-approved media (Takara Bio) supplemented with various concentrations of dox was added. 5 days later, the virus lysates were harvested and viral titers were analyzed by flow cytometry.
# [3] = system: 1:10 mixture of tTA.mCherry.ΔAdPol.adenovirus and CFP.GFP.ΔAdPol.adenovirus; experiment: Enrichment of tTA-expressing adenovirus by blasticidin selection in TRE3G.blastR cells; assay type: cell-based, Adenovirus type 5; conditions: 20 μM blasticidin, added 10 h post-infection
# Experimental: FIG. 49. Enrichment of adenoviruses encoding positive BOI variants by antibiotic selection. TRE3G.blastR cells were infected with a 1:10 mixture of ΔAdPol.adenovirus encoding either tTA (+tTA) or CFP (−tTA) and treated with blasticidin 10 h post-infection. Two days post-infection, adenoviruses were harvested and titered by flow cytometry. Titers are given in infectious units per milliliter (IU/mL), defined as the volume of adenoviral supernatant required to induce fluorescence in a cell as analyzed by flow cytometry. Dashed line represents the limit of detection (L.O.D) of the assay. Titers below this limit are inaccurate due to the percentage of infected cells being below the 1% error threshold of flow cytometry.
# A 1:10 mixture of tTA.mCherry.ΔAdPol.adenovirus and CFP.GFP.ΔAdPol.adenovirus (TABLE 16) was used to infect a 24-well plate of TRE3G.blastR cells (150,000 cells/well) (TABLE 17) at MOI=0.7, and blasticidin was added 10 h post-infection. Viral supernatants were harvested ˜48 h post-infection, and titered by flow cytometry as described above.
# HEK293A cells = experiment: Resazurin assay to assess acute toxicity of common tissue culture antibiotics; assay type: cell-based, human; conditions: two-day treatment
# Experimental: FIGS. 46A-46D. Resazurin assay to assess acute toxicity of common tissue culture antibiotics. HEK293A cells were treated for two days with either G418 (FIG. 46A), puromycin (FIG. 46B), blasticidin (FIG. 46C), or hygromycin (FIG. 46D), and cell viability was analyzed by resazurin fluorescence.
# A 96-well plate was seeded with HEK293A cells (˜15,000) and treated with either puromycin HCl (Corning), Hygromycin B (Thermo Fisher), Blasticidin S HCl (Thermo Fisher), or G418 (Enzo). Two days later, 10 μL of 0.1 mg/mL resazurin (MilliporeSigma) was added and incubated for 1.5 h. Media was transferred to a fresh 96-well plate and fluorescence was analyzed on a Bio-Tek Synergy H1 Hybrid Microplate Reader.
# RFP.ΔAdPol.adenovirus = experiment: Time course of antibiotic inhibition of adenoviral replication; assay type: cell-based, Adenovirus type 5; conditions: treatment initiated 24 h post-infection
# Description: FIGS. 47A-47B. Time-course of antibiotic-mediated inhibition of adenoviral infection. HEK293A cells expressing wild-type AdPol were infected with RFP.ΔAdPol.adenovirus and treated with either a) puromycin, or b) blasticidin at various time points post-infection (h.p.i.=hours post-infection). After 2 days, the infections were harvested and titered by flow cytometry. Titers are given in infectious units per milliliter (IU/mL), defined as the volume of adenoviral supernatant required to induce fluorescence in a cell as analyzed by flow cytometry. Dashed line represents the limit of detection (L.O.D) of the assay. Titers below this limit are inaccurate due to the percentage of infected cells being below the 1% error threshold of flow cytometry.
# RFP.ΔAdPol.adenovirus (TABLE 16) was used to infect a 24-well plate of wild-type AdPol cells (150,000 cells/well) (TABLE 17) at MOI=1, and either blasticidin or puromycin was added at various time points following the infection. Viral supernatants were harvested ˜48 h post-infection, and titered by flow cytometry as described above.
# [4] = system: ΔAdPol.adenovirus encoding either tTA or RFP; experiment: tTA-induced resistance to antibiotic inhibition of adenoviral replication; assay type: cell-based, Adenovirus type 5; conditions: treatment 10 h post-infection
# Experimental: FIGS. 48A-48D. tTA-induced resistance to antibiotic mediated inhibition of adenoviral infection. Either wild-type AdPol cells, TRE3G.puroR cells, or TRE3G.blastR cells were infected with ΔAdPol.adenovirus encoding either tTA (+tTA) or RFP (−tTA). Ten hours post-infection, wild-type AdPol cells were treated with either puromycin (FIG. 48A) or (FIG. 48B) blasticidin, TRE3G.puroR cells were treated with puromycin (FIG. 48C), and TRE3G.blastR cells were treated with blasticidin (FIG. 48D). After 2, days, the infections were harvested and titered by flow cytometry. Titers are given in infectious units per milliliter (IU/mL), defined as the volume of adenoviral supernatant required to induce fluorescence in a cell as analyzed by flow cytometry. Dashed line represents the limit of detection (L.O.D) of the assay. Titers below this limit are inaccurate owing to the percentage of infected cells being below the 1% error threshold of flow cytometry.
# Either RFP.ΔAdPol.adenovirus, or tTA.mCherry.ΔAdPol.adenovirus (TABLE 16) was used to infect a 24-well plate of either wild-type AdPol cells, TRE3G.puroR cells, or TRE3G.blastR cells (150,000 cells/well) (TABLE 17) at MOI=1, and either puromycin or blasticidin was added 10 h post-infection. Viral supernatants were harvested ˜48 h post-infection, and titered by flow cytometry as described above.
# [5] = system: AdGLΔPol adenoviral genome; conditions: high fidelity deep sequencing by Sanjuán and co-workers (Risso-Ballester et al. 2016); cited from earlier work
molecule,measurement,setting,value
"C[C@H]1c2cccc(O)c2C(=O)C2=C(O)[C@]3(O)C(=O)C(C(N)=O)=C(O)[C@@H](N(C)C)[C@@H]3[C@@H](O)[C@@H]21 [dox, doxycycline]",decrease in viral titer,tTAwt.mCherry adenovirus [1],~10 fold
same,modulation of adenoviral titers,tTAwt.mCherry adenovirus [2],~10 fold
CN(CC[C@H](N)CC(=O)N[C@H]1C=C[C@H](n2ccc(N)nc2=O)O[C@@H]1C(=O)O)C(=N)N [blasticidin],drop of CFP.ΔAdPol.adenovirus titer,[3],over 100 fold
same,tTA.mCherry.ΔAdPol.adenovirus titer,[3],remained steady
same,dynamic range of inhibitory concentrations,HEK293A cells,over two orders of magnitude
same,acute toxicity (cell viability by resazurin fluorescence),HEK293A cells; various concentrations,completely toxic
same,inhibition of adenoviral replication,RFP.ΔAdPol.adenovirus,Neither puromycin nor blasticidin were able to inhibit adenoviral replication
same,effect on RFP.ΔAdPol.adenovirus,[4]; TRE3G.blastR cell line,still inhibited
same,effect on tTA.ΔAdPol.adenovirus,[4]; TRE3G.blastR cell line,completely resistant to blasticidin treatment
same,effect on ΔAdPol.adenovirus replication,[4]; wild-type AdPol cell line,inhibited both RFP-expressing and tTA-expressing ΔAdPol.adenovirus replication
"AdPol: high fidelity wild-type adenovirus type-5 DNA polymerase (protein, UniProt P04495 1-1198, looked up) DNA polymerase: MALVQAHRARRLHAEAPDSGDQPPRRRVRQQPTRAAPAPARARRRRAPAPSPGGSGAPPTSGGSPASPLLDASSKDTPAAHRPPRGTVVAPRGCGLLQAIDAATNQPLEIRYHLDLARALTRLCEVNLQELPPDLTPRELQTMDSSHLRDVVIKLRPPRADIWTLGSRGVVVRSTVTPLEQPDGQGQAAEVEDHQPNPPGEGLKFPLCFLVRGRQVNLVQDVQPVHRCQYCARFYKSQHECSARRRDFYFHHINSHSSNWWREIQFFPIGSHPRTERLFVTYDVETYTWMGAFGKQLVPFMLVMKFGGDEPLVTAARDLAANLGWDRWEQDPLTFYCITPEKMAIGRQFRTFRDHLQMLMARDLWSSFVASNPHLADWALSEHGLSSPEELTYEELKKLPSIKGIPRFLELYIVGHNINGFDEIVLAAQVINNRSEVPGPFRITRNFMPRAGKILFNDVTFALPNPRSKKRTDFLLWEQGGCDDTDFKYQYLKVMVRDTFALTHTSLRKAAQAYALPVEKGCCAYQAVNQFYMLGSYRSEADGFPIQEYWKDREEFVLNRELWKKKGQDKYDIIKETLDYCALDVQVTAELVNKLRDSYASFVRDAVGLTDASFNVFQRPTISSNSHAIFRQIVFRAEQPARSNLGPDLLAPSHELYDYVRASIRGGRCYPTYLGILREPLYVYDICGMYASALTHPMPWGPPLNPYERALAARAWQQALDLQGCKIDYFDARLLPGVFTVDADPPDETQLDPLPPFCSRKGGRLCWTNERLRGEVATSVDLVTLHNRGWRVHLVPDERTTVFPEWRCVAREYVQLNIAAKERADRDKNQTLRSIAKLLSNALYGSFATKLDNKKIVFSDQMDAATLKGITAGQVNIKSSSFLETDNLSAEVMPAFQREYSPQQLALADSDAEESEDERAPTPFYSPPSGTPGHVAYTYKPITFLDAEEGDMCLHTLERVDPLVDNDRYPSHLASFVLAWTRAFVSEWSEFLYEEDRGTPLEDRPLKSVYGDTDSLFVTERGHRLMETRGKKRIKKHGGNLVFDPERPELTWLVECETVCGACGADAYSPESVFLAPKLYALKSLHCPSCGASSKGKLRAKGHAAEGLDYDTMVKCYLADAQGEDRQRFSTSRTSLKRTLASAQPGAHPFTVTQTTLTRTLRPWKDMTLARLDEHRLLPYSESRPNPRNEEICWIEMP",estimated mutation rate,[5],~1.3×10^−7 mutations per base per viral passage
